By IC50 is commonly meant the concentration that inhibits the measured activity by half. As usually defined, the Ki is the dissociation constant of the complex between target and ligand, obtained from inhibition or displacement. Read a low Ki as higher affinity.

Test [1] is described as follows: Inhibition of CAMK2.
Test [2] has as its target T1, Calcium/calmodulin-dependent protein kinase type IV (Homo sapiens, UniProt Q16566).
T1 sequence (Q16566 whole entry): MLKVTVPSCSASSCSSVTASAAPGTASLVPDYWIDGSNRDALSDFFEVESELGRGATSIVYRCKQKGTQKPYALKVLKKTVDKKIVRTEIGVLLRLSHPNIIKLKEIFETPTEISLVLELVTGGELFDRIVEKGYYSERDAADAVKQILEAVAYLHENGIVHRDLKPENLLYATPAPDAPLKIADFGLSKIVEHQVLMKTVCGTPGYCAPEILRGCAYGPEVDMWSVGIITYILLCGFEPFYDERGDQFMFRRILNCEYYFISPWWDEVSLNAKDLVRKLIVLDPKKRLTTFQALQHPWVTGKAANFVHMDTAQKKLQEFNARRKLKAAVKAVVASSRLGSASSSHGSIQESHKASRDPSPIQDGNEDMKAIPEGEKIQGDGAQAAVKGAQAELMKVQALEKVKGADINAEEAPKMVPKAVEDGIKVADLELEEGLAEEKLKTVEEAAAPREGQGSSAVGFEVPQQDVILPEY
The test can be described thus: Inhibition of CAMK4.

Test [3] has as its target Myosin light chain kinase, smooth muscle (Homo sapiens, UniProt Q15746). The test can be described thus: Inhibition of MLCK.
In test [4] the target is Mitogen-activated protein kinase 14 (Homo sapiens, UniProt Q16539). The test can be described thus: Inhibition of p38alpha.
Test [5] deals with RAC-alpha serine/threonine-protein kinase (Homo sapiens, UniProt P31749). The test can be described thus: Inhibition of AKT1.
Test [6] in a line: Inhibition of PKC.
Test [7] is described as follows: Non-competitive inhibition of CAMK2 by Michaelis-Menten plot.

Sequence of Myosin light chain kinase, smooth muscle (Q15746 whole entry): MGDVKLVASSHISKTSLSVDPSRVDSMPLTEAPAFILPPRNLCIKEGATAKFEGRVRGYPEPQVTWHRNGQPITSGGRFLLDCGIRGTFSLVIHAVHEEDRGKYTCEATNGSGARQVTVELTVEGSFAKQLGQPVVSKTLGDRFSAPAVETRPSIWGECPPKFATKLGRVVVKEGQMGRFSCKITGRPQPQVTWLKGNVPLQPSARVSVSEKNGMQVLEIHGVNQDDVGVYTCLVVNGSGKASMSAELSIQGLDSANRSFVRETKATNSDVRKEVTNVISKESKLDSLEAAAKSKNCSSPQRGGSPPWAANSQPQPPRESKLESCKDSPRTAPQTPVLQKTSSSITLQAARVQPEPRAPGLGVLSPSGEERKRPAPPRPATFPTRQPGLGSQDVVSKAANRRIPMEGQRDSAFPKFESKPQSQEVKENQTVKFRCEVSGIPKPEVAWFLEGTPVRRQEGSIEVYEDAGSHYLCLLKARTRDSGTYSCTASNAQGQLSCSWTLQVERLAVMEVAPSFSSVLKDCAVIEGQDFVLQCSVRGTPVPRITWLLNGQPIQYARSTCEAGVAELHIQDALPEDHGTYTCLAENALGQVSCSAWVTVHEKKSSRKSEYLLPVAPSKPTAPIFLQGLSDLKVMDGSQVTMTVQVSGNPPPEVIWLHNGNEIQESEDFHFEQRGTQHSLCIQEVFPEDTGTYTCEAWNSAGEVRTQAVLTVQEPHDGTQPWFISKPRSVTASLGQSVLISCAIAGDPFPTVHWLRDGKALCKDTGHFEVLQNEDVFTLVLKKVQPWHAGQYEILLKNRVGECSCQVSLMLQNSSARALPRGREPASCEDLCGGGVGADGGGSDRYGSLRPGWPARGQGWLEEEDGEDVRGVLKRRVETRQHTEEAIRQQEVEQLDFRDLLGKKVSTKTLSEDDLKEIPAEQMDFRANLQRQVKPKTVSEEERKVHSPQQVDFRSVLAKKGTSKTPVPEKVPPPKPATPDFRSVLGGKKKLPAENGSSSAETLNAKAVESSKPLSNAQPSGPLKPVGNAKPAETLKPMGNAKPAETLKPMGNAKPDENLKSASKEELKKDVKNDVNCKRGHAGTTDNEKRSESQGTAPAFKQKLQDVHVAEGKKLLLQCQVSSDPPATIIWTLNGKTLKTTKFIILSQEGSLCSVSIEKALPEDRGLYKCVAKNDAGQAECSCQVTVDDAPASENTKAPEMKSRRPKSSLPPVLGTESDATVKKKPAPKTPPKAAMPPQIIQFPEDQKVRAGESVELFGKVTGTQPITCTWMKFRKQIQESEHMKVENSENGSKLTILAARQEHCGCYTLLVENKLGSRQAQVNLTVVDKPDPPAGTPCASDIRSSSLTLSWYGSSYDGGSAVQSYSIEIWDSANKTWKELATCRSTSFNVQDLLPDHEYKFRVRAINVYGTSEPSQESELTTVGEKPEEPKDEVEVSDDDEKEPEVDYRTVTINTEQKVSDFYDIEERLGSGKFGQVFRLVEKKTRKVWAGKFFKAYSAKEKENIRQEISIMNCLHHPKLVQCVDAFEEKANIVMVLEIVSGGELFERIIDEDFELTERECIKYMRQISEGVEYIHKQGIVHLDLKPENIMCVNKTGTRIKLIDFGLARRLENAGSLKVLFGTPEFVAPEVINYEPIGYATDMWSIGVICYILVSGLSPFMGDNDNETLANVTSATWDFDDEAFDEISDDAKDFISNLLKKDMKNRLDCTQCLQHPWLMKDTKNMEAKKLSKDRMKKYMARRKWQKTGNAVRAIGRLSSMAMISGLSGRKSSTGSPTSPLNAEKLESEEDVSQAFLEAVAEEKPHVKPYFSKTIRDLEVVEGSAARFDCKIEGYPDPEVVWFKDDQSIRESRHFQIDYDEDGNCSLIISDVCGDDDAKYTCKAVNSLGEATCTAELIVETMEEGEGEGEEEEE
Sequence of Mitogen-activated protein kinase 14 (Q16539 whole entry): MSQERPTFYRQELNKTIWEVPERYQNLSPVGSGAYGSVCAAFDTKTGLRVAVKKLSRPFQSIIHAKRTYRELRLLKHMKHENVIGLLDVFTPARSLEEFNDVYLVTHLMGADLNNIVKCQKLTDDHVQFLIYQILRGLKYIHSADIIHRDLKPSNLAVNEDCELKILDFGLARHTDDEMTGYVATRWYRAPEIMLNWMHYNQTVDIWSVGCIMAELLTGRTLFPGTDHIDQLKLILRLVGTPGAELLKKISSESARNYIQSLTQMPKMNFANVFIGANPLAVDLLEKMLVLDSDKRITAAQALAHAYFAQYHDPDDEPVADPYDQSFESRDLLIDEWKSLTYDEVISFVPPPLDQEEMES
Sequence of RAC-alpha serine/threonine-protein kinase (P31749 whole entry): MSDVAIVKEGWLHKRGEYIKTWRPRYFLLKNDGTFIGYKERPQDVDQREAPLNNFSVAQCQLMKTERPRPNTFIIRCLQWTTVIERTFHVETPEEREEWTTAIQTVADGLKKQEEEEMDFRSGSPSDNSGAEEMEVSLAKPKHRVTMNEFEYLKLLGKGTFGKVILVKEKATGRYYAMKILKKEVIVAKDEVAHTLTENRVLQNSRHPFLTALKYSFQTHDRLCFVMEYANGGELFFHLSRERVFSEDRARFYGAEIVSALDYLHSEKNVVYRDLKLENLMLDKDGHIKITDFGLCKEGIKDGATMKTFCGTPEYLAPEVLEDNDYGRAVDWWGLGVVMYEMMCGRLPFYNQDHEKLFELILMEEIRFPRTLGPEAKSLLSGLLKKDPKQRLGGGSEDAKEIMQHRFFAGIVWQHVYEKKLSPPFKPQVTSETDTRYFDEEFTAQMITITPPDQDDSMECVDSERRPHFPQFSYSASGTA

For the molecule `CS(=O)(=O)Nc1ccnc(NCCc2ccccc2)n1`, the IC50 in test [1] turned out to be 60 µM.

With `O=S(=O)(Nc1nc(OCCc2ccccc2)nc2c1CN(Cc1ccccc1)CC2)c1ccc2ccccc2c1`, in test [1], the IC50 was determined as 1.8 µM.

In turn, `Cc1ccccc1S(=O)(=O)Nc1nc(NCCc2ccccc2)nc2c1CN(Cc1ccccc1)CC2` displayed an IC50 in test [1] of 0.53 µM.

Molecule `Cc1cccc(S(=O)(=O)Nc2nc(NCCc3ccccc3)nc3c2CN(Cc2ccccc2)CC3)c1` registered an IC50 in test [1] of 2.4 µM.

With `Cc1ccc(S(=O)(=O)Nc2nc(NCCc3ccccc3)nc3c2CN(Cc2ccccc2)CC3)cc1`, the IC50 in test [1] amounted to 2.7 µM.

For `COc1ccc(S(=O)(=O)Nc2nc(NCCc3ccccc3)nc3c2CN(Cc2ccccc2)CC3)cc1`, half-maximal inhibition in test [1] (IC50) required 3.2 µM.

For `Cc1c(Cl)cccc1S(=O)(=O)Nc1nc(NCCc2ccccc2)nc2c1CN(Cc1ccccc1)CC2`, the 50% inhibitory concentration (IC50) was 0.063 µM in test [1]; greater than 60 µM in test [2]; 36 µM in test [3]; 11 µM in test [4]; 30 µM in test [5]; 21 µM in test [6].

Consider `Cc1ccc(S(=O)(=O)Nc2nc(NCCc3ccccc3)nc3c2CN(Cc2ccccc2)CC3)cc1Cl`, for which the IC50 in test [1] was 0.76 µM.

On to `O=S(=O)(Nc1ccnc(NCCc2ccccc2)n1)c1ccc(Cl)cc1`, for which the results for the IC50 in test [1] and in test [3] were 11 µM and 51 µM, respectively.

`O=S(=O)(Cc1ccccc1)Nc1ccnc(NCCc2ccccc2)n1`: the IC50 in test [1] worked out at 27 µM.

Take `O=S(=O)(Nc1nc(NCCc2ccccc2)nc2c1CCCC2)c1ccc(Cl)cc1`: the IC50 in test [1] was 60 µM.

In the case of `O=S(=O)(Nc1nc(NCCc2ccccc2)nc2c1CN(Cc1ccccc1)CC2)c1ccccc1`, the midpoint of inhibition in test [1], the IC50, lay at 9.7 µM.

As to `O=S(=O)(Nc1nc(NCCc2ccccc2)nc2c1CN(Cc1ccccc1)CC2)c1ccc(Cl)cc1`, half-maximal inhibition in test [1] (IC50) required 3.2 µM.

`CN1CCc2nc(NCCc3ccccc3)nc(NS(=O)(=O)c3ccccc3)c2C1` came in with a concentration for half-maximal inhibition (IC50) in test [1] of 10 µM.

In turn, `CN(c1nc(NCCc2ccccc2)nc2c1CN(Cc1ccccc1)CC2)S(=O)(=O)c1ccccc1` showed an IC50 in test [1] of 9.3 µM.

As to `CCCN(c1nc(NCCc2ccccc2)nc2c1CN(Cc1ccccc1)CC2)S(=O)(=O)c1ccccc1`, the IC50 in test [1] was greater than 30 µM.

In test [1], `O=S(=O)(Nc1nc(NCCc2ccccc2)nc2c1CN(Cc1ccccc1)CC2)c1ccccc1Cl` showed an IC50 of 0.92 µM.

Molecule `O=S(=O)(Nc1nc(NCCc2ccccc2)nc2c1CN(Cc1ccccc1)CC2)c1cccc(Cl)c1` gave an IC50 in test [1] of 0.42 µM.

`O=S(=O)(Nc1nc(NCCc2ccccc2)nc2c1CN(Cc1ccccc1)CC2)c1cccc(Cl)c1Cl` gave an IC50 in test [1] of 1 µM.

With `O=S(=O)(Nc1nc(NCCc2ccccc2)nc2c1CN(Cc1ccccc1)CC2)c1ccc(Cl)c(Cl)c1`, in test [1], the IC50 is 0.2 µM.

Turning to `O=S(=O)(Nc1nc(NCCc2ccccc2)nc2c1CN(Cc1ccccc1)CC2)c1cccc2ccccc12`, in test [1], the IC50 was 3.3 µM.

Regarding `O=S(=O)(Nc1nc(NCCc2ccccc2)nc2c1CN(Cc1ccccc1)CC2)c1ccc2ccccc2c1`, the IC50 in test [1] is 0.16 µM; in test [2] it was greater than 60 µM; in test [3], 0.9 µM; in test [4], 11 µM; in test [5] it was 8.5 µM; in test [6], 22 µM. The molecule further gave a Ki in test [7] of 0.926 µM.

For the molecule `COc1ccc(S(=O)(=O)N(CCO)c2ccccc2CN(C)C/C=C/c2ccc(Cl)cc2)cc1`, half-maximal inhibition in test [1] (IC50) required 1.6 µM.

Values taken from ChEMBL document CHEMBL1268914, “5,6,7,8-Tetrahydropyrido[4,3-d]pyrimidines as novel class of potent and highly selective CaMKII inhibitors” (Bioorg Med Chem Lett, 2010).
